Test results published in paper PMC12714254, “Exploiting peptide chirality and transport to dissect the complex mechanism of action of host peptides on bacteria” (PLOS Genetics, 2025).

What was measured:
[1] = system: S. meliloti cell cycle; set-up: method as in PMID 24501120; settings: ref [12]; cited from earlier work
[2] = system: in vitro coupled transcription-translation (GFP reporter); assay: In vitro translation assay, GFP fluorescence; type: biochemical; settings: same molarity, S3C Fig

Substance	cell cycle changes [1]	translation inhibition by LL37 vs NCR247 [2]
Polymyxin B	cannot elicit cell cycle changes	
LL37: cationic peptide LL37 (LLGDFFRKSKEKIGKEFKRIVQRIKDFLRNLVPRTES; Antibacterial peptide LL-37; UniProt P49913 134-170, looked up)	cannot elicit cell cycle changes	very diminished phenotype as compared to the L-NCR247 and was lesser than the inhibition by D-NCR247
